Measured values: article PMC10167756 (Journal of medicinal chemistry, 2023)
Where a name gives a salt, the structure may show the parent alone.

Target: T1, Spns2 (Spinster homolog 2) (Mus musculus, UniProt Q91VM4)
T1 sequence (Q91VM4 1-549): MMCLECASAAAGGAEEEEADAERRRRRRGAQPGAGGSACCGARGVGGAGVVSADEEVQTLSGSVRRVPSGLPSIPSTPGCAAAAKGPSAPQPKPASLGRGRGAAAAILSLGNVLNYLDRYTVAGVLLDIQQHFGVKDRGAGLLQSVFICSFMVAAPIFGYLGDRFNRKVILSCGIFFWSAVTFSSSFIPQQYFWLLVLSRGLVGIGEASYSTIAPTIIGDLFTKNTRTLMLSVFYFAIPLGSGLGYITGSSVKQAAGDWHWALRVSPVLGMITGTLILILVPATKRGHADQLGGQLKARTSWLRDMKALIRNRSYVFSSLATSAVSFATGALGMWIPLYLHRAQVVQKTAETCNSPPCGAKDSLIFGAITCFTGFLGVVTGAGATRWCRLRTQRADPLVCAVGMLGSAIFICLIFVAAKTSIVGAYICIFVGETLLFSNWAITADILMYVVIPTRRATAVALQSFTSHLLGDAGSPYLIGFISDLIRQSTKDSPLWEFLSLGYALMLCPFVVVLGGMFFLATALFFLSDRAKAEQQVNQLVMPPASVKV
Assay: S1P release assay in mouse Spns2-transfected HeLa cells, % inhibition at […]
Format: cell-based

inhibition at 0.3 µM: 50 ± 4%
SMILES: CCCCCCCCCc1ccc2oc(NC[C@H]3CCNC3)nc2c1 [35p, (S)-5-nonyl-N-(pyrrolidin-3-ylmethyl)benzo[d]oxazol-2-amine hydrochloride]
